In US10391095B2, “DNA-PK inhibitors” (Vertex Pharmaceuticals Incorporated, priority 2012, dated 2019):

Biological target: DNA-PK (Homo sapiens, UniProt P78527)
Test: DNA-PK inhibition assay (radiometric, 33P-ATP)
Type: biochemical
Settings: 100 μM ATP, competitive tight-binding fit
Procedure: Compounds were screened for their ability to inhibit DNA-PK kinase using a standard radiometric assay. Briefly, in this kinase assay the transfer of the terminal ^33P-phosphate in ^33P-ATP to a peptide substrate is interrogated. The assay was carried out in 384-well plates to a final volume of 50 μL per well containing approximately 6 nM DNA-PK, 50 mM HEPES (pH 7.5), 10 mM MgCl2, 25 mM NaCl, 0.01% BSA, 1 mM DTT, 10 μg/mL sheared double-stranded DNA (obtained from Sigma), 0.8 mg/mL DNA-PK peptide ([…] obtained from American Peptide), and 100 μM ATP. Accordingly, compounds of the invention were dissolved in DMSO to make 10 mM initial stock solutions. Serial dilutions in DMSO were then made to obtain the final solutions for the assay. A 0.75 μL aliquot of DMSO or inhibitor in DMSO was added to each well, followed by the addition of ATP substrate solution containing ^33P-ATP (obtained from Perkin Elmer). The reaction was started by the addition of DNA-PK, peptide and ds-DNA. After 45 min, the reaction was quenched with 25 μL of 5% phosphoric acid. The reaction mixture was transferred to MultiScreen HTS 384-well PH plates (obtained from Millipore), allowed to bind for one hour, and washed three times with 1% phosphoric acid. Following the addition of 50 μL of Ultima Gold™ high efficiency scintillant (obtained from Perkin Elmer), the samples were counted in a Packard TopCount NXT Microplate Scintillation and Luminescence Counter (Packard BioScience). The Ki values were calculated using Microsoft Excel Solver macros to fit the data to the kinetic model for competitive tight-binding inhibition.

Row | SMILES | Ki [nM]
1 | CNC(=O)c1ccnc2c([C@H](C)CNc3cc(-c4ccc(N)nc4)ncn3)cccc12 [Compound 586] | < 30
2 | CNC(=O)c1ccc(C(C)CNc2cc(-c3cnc4c(cnn4CC(C)(C)O)c3)ncn2)c(OC)c1 (centres unmarked) [Compound 274] | < 30
3 | CNC(=O)c1ccnc2c([C@H](C)CNc3cc(-c4ccc(C(=O)NC5CC5)cc4)ncn3)cccc12 [Compound 752] | < 30
4 | CNC(=O)c1ccnc2c([C@H](C)CNc3cc(-c4cnc(OC5CCC5)nc4)ncn3)ccc(F)c12 [Compound 982] | < 30
5 | C[C@H](CNc1cc(-c2cc(C(F)(F)F)c3ncccc3c2)ncn1)c1ccnc2c1OCCO2 [Compound 557] | < 30
6 | CNC(=O)c1ccc(C(C)CNc2cc(-c3ccc4c(cnn4C4COC4)c3C)ncn2)c(OC)c1 (centres unmarked) [Compound 278] | < 30
7 | CONC(=O)c1ccc(C(C)CNc2cc(-c3ccc(C)nc3)ncn2)c(OC)c1 (centres unmarked) [Compound 157] | < 30
8 | CNC(=O)c1ccnc2c([C@H](C)CNc3cc(-c4cc(F)c(OC(C)C)c(F)c4)ncn3)cccc12 [Compound 872] | < 30
9 | CNC(=O)c1ccc([C@H](C)CNc2cc(-c3ccc(N(C)C4CCN(C)CC4)nc3)ncn2)c(OC)c1 [Compound 347] | < 30
10 | CNC(=O)c1ccnc2c([C@H](C)CNc3cc(-c4ccc(S(C)(=O)=O)nc4)ncn3)cccc12 [Compound 587] | < 30
11 | Cc1ccc(-c2cc(NCC(C)c3cccc4cccnc34)ncn2)cn1 (centres unmarked) [Compound 235] | < 30
12 | CC(CNc1cc(-c2cnc3c(cnn3CCO)c2)ncn1)c1csc2cccnc12 (centres unmarked) [Compound 399] | < 30
13 | CCOc1cc(-c2cc(NC[C@@H](C)c3cccc4c(C(=O)NC)ccnc34)ncn2)cnc1C [Compound 875] | < 30
14 | CNC(=O)c1ccnc2c([C@H](C)CNc3cc(-c4cnc(NC)c(C)c4)ncn3)cccc12 [Compound 961] | < 30
15 | CNC(=O)c1c(F)cnc2c([C@H](C)CNc3cc(-c4cncc(C)c4)ncn3)cccc12 [Compound 772] | < 30
16 | CNC(=O)c1ccc([C@H](C)CNc2cc(-c3ccc(N(C)CCO)nc3)ncn2)c(OC)c1 [Compound 365] | < 30
17 | Cc1ncc(-c2cc(NC[C@@H](C)c3cccc4c(=O)n(C)cnc34)ncn2)cn1 [Compound 697] | < 30
18 | CNC(=O)c1ccnc2c([C@H](C)CNc3cc(-c4ccc(N(C)CCC(C)(C)O)nc4)ncn3)cccc12 [Compound 717] | < 30
19 | COc1cc(C(=O)NCC(F)F)ccc1C(C)CNc1cc(-c2ccc(C)nc2)ncn1 (centres unmarked) [Compound 296] | < 30
20 | CNC(=O)c1c(F)cnc2c([C@H](C)CNc3cc(-c4cnc(C5CCOCC5)nc4)ncn3)cccc12 [Compound 833] | < 30
21 | C[C@H](CNc1cc(-c2ccc3ncccc3c2)ncn1)c1ccnc2cccnc12 [Compound 501] | < 30
22 | Cc1ccc(-c2cc(NCC(C)c3cccnc3OC3CCC3)ncn2)cn1 (centres unmarked) [Compound 247] | < 30
23 | CCOc1ccccc1CCNc1cc(-c2ccc(C)nc2)ncn1 [Compound 57] | < 30

Next, values leading:

Row | Ki [nM] | SMILES
24 | < 30 | CC(CNc1cc(-c2cnc3c(cnn3CCO)c2)ncn1)c1cncc2c1OCC2 (centres unmarked) [Compound 419]
25 | < 30 | CNC(=O)c1ccc(C(C)CNc2cc(-c3cnc4c(cnn4C[C@@H](O)CO)c3)ncn2)c(OC)c1 (some centres unmarked) [Compound 225]
26 | < 30 | CCOc1ncc(-c2cc(NC[C@@H](C)c3ccccc3OC)ncn2)cn1 [Compound 125]
27 | < 30 | CNC(=O)c1ccnc2c([C@H](C)CNc3cc(-c4ccc(C5CC5)nc4)ncn3)ccc(F)c12 [Compound 852]
28 | < 30 | COc1ccccc1[C@H](C)CNc1cc(-c2ccc(NC(C)CO)nc2)ncn1 (single isomer, unassigned) [Compound 126]
29 | < 30 | CNC(=O)c1c(F)cnc2c([C@H](C)CNc3cc(-c4ccc(C#N)nc4)ncn3)cccc12 [Compound 901]
30 | < 30 | CCOc1ccc(-c2cc(NC[C@@H](C)c3cccc4c(C(=O)NC)ccnc34)ncn2)cn1 [Compound 933]
31 | < 30 | CCOc1cc(F)ccc1[C@H](C)CNc1cc(-c2ccc(C)nc2)ncn1 [Compound 103]
32 | < 30 | CNC(=O)c1c(OC)cnc2c([C@H](C)CNc3cc(-c4ccc(C)nc4)ncn3)cccc12 [Compound 762]
33 | < 30 | CCN1CCCC1CNc1ccc(-c2cc(NC[C@@H](C)c3cccc4c(C(=O)NC)ccnc34)ncn2)cn1 (single isomer, unassigned) [Compound 704]
34 | < 30 | CNC(=O)c1c(-n2ccnc2)cnc2c([C@H](C)CNc3cc(-c4ccc(C)nc4)ncn3)cccc12 [Compound 763]
35 | < 30 | CNC(=O)c1c(F)cnc2c([C@H](C)CNc3cc(-c4cnc(OC)c(OC)c4)ncn3)cccc12 [Compound 898]
36 | < 30 | Cc1ncc(-c2cc(NC[C@@H](C)c3cccc4scnc34)ncn2)cn1 [Compound 658]
37 | < 30 | C[C@H](CNc1cc(-c2cnc3c(cnn3CCO)c2)ncn1)c1cccc2c(C(F)F)c(F)cnc12 [Compound 814]
38 | < 30 | CNC(=O)c1ccnc2c([C@H](C)CNc3cc(-c4cnc(OC)c(COC)c4)ncn3)cccc12 [Compound 944]
39 | < 30 | CNC(=O)c1ccnc2c([C@H](C)CNc3cc(-c4cnc(C)c(F)c4)ncn3)ccc(F)c12 [Compound 974]
40 | < 30 | CNC(=O)c1ccnc2c([C@H](C)CNc3cc(-c4ccc(C5(N)CC5)nc4)ncn3)cccc12 [Compound 939]

Row | Ki [nM] | SMILES
41 | < 30 | Cc1ccc(-c2cc(NC[C@@H](C)c3ccnc4c3OCCC4)ncn2)cn1 [Compound 535]
42 | < 30 | CC(CNc1cc(-c2cnc3c(cnn3C3COC3)c2)ncn1)c1cncc2c1OCC2 (centres unmarked) [Compound 420]
43 | < 30 | CNC(=O)c1ccnc2c([C@H](C)CNc3cc(-c4cnc(SC)nc4)ncn3)cccc12 [Compound 800]
44 | < 30 | COc1ncc(-c2cc(NC[C@@H](C)c3ccnc4c3OCCO4)ncn2)cc1N [Compound 519]
45 | < 30 | COc1cnc(N)cc1[C@H](C)CNc1cc(-c2ccc(C)nc2)ncn1 [Compound 630]
46 | < 30 | CNC(=O)c1ccnc2c([C@H](C)CNc3cc(-c4cnc(C(C)C)nc4)ncn3)ccc(F)c12 [Compound 854]
47 | < 30 | CNC(=O)c1ccc(C(C)CNc2cc(-c3ccc4c(cnn4CCO)c3)ncn2)c(OC)c1 (centres unmarked) [Compound 246]
48 | < 30 | C[C@H](CNc1cc(-c2ccc3ccncc3c2)ncn1)c1ccnc2c1OCCO2 [Compound 541]
49 | < 30 | COc1nc(N)ncc1[C@H](C)CNc1cc(-c2ccc(C)nc2)ncn1 [Compound 475]
50 | < 30 | CNC(=O)c1ccnc2c([C@H](C)CNc3cc(-c4ccc5c(c4)CN(C(=O)COC)CC5)ncn3)cccc12 [Compound 834]
51 | < 30 | COc1ccccc1CCNc1cc(-c2cnc3c(cnn3C3CCN(C)CC3)c2)ncn1 [Compound 82]
52 | < 30 | CNC(=O)c1ccc(C(C)CNc2cc(-c3ccc4c(c3)c(C)nn4CCO)ncn2)c(OC)c1 (centres unmarked) [Compound 272]
53 | < 30 | CNC(=O)c1c(F)cnc2c([C@H](C)CNc3cc(-c4ccnc(C5CCC5)c4)ncn3)cccc12 [Compound 919]
54 | < 30 | C[C@H](CNc1cc(-c2cc(F)c3ncccc3c2)ncn1)c1ccnc2c1OCCO2 [Compound 556]
55 | < 30 | COc1sccc1C(C)CNc1cc(-c2cnc3c(cnn3CC3CC3)c2)ncn1 (centres unmarked) [Compound 266]
56 | < 30 | CNC(=O)c1ccnc2c([C@H](C)CNc3cc(-c4ccc(C#N)nc4)ncn3)ccc(F)c12 [Compound 909]
